Results on 16 compounds are retold here after ChEMBL document CHEMBL1287810, “Diamino-1,2,4-triazole derivatives are selective inhibitors of TYK2 and JAK1 over JAK2 and JAK3” (Bioorg Med Chem Lett, 2010).

Experiment [1] addresses T1, Tyrosine-protein kinase JAK3 (Homo sapiens, UniProt P52333).
T1 sequence (P52333 whole entry): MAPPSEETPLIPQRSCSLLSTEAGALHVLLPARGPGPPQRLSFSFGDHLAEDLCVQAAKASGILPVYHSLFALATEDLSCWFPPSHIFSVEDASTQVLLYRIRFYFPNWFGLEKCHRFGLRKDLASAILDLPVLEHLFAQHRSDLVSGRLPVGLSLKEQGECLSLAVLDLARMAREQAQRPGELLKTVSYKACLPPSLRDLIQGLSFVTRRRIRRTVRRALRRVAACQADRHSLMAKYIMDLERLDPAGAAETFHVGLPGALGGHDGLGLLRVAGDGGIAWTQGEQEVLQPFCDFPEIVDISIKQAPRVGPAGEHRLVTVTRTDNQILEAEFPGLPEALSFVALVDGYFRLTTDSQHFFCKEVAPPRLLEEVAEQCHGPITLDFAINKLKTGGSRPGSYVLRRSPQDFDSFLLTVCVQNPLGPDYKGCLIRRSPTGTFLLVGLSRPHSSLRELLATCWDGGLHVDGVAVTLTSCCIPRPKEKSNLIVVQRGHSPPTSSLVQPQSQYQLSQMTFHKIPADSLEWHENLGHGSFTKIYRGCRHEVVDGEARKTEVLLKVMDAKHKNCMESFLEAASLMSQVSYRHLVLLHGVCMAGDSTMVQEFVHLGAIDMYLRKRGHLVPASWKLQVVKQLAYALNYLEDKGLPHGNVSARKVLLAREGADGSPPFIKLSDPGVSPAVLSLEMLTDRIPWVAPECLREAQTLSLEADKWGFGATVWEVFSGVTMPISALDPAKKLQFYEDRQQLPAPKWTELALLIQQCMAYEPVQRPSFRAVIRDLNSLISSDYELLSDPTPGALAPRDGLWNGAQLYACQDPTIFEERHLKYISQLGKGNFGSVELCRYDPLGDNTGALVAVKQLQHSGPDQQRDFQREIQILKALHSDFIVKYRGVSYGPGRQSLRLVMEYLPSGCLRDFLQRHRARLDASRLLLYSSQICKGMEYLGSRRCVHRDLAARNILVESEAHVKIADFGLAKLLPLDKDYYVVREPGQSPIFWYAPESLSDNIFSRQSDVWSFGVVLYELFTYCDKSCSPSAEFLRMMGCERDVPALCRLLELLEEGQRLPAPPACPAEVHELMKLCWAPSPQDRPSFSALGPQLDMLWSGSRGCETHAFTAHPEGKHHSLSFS

Experiment [2] concerns the target Non-receptor tyrosine-protein kinase TYK2 (Homo sapiens, UniProt P29597).
Experiment [3] addresses Tyrosine-protein kinase JAK1 (Homo sapiens, UniProt P23458).
Experiment [4] addresses Tyrosine-protein kinase JAK2 (Homo sapiens, UniProt O60674).

Where only a bound is given, the exact number is not on record here.

Sequence of Non-receptor tyrosine-protein kinase TYK2 (P29597 whole entry): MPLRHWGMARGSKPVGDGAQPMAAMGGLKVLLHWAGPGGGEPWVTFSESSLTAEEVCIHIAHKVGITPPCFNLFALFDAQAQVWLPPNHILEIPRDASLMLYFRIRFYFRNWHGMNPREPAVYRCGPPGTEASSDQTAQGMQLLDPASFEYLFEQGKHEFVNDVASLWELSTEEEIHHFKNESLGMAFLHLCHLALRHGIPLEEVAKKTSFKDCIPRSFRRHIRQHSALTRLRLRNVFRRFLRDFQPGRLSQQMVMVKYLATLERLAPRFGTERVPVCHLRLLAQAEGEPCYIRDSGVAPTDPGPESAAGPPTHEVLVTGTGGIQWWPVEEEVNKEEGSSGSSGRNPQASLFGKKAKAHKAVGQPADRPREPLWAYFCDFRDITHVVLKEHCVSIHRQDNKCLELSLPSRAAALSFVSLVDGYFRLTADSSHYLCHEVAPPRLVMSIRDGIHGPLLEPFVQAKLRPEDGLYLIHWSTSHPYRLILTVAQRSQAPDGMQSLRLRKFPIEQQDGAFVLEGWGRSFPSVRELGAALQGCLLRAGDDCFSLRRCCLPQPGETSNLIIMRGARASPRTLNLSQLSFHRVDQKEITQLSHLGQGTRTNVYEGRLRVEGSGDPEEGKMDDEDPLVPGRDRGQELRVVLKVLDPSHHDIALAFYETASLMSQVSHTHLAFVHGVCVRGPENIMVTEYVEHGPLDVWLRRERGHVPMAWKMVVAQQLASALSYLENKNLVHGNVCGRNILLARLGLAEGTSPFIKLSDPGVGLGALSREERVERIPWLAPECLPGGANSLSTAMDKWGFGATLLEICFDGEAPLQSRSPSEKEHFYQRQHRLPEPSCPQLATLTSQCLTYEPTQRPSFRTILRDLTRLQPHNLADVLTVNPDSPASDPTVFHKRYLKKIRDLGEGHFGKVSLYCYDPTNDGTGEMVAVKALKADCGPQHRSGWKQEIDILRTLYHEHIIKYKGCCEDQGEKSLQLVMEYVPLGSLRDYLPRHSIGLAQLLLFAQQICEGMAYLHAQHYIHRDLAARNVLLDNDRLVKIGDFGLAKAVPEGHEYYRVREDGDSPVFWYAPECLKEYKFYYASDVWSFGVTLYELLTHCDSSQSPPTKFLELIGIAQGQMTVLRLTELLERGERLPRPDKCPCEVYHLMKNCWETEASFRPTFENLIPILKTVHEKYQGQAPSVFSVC
Sequence of Tyrosine-protein kinase JAK1 (P23458 whole entry): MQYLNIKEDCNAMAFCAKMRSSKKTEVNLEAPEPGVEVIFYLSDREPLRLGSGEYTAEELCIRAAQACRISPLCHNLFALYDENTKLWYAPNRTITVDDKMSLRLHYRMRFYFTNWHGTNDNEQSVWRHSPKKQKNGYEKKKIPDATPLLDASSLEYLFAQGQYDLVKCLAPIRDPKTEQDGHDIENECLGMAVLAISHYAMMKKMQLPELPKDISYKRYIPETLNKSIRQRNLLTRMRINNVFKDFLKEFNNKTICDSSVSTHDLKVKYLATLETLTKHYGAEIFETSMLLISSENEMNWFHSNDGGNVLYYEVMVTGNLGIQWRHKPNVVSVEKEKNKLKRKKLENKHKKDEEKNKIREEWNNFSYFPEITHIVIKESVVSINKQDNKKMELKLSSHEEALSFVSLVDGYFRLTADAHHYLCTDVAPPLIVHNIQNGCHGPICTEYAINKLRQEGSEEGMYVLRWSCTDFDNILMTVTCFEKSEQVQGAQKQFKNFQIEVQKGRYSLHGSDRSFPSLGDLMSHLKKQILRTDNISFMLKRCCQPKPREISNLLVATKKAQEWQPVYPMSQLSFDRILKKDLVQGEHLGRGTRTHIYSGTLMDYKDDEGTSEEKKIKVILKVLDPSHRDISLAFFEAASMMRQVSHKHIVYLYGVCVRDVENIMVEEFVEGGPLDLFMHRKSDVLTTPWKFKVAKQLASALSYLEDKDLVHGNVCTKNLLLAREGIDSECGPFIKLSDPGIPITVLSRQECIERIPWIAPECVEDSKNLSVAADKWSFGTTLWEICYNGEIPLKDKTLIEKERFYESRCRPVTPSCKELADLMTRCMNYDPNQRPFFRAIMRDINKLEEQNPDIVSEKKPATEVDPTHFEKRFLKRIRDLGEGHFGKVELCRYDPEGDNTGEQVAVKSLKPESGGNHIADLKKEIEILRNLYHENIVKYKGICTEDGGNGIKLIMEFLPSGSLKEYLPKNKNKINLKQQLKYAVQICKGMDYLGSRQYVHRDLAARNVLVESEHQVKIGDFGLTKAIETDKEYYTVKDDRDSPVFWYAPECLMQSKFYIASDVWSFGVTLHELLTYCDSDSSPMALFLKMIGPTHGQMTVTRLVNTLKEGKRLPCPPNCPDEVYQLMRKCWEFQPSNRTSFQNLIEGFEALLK
Sequence of Tyrosine-protein kinase JAK2 (O60674 whole entry): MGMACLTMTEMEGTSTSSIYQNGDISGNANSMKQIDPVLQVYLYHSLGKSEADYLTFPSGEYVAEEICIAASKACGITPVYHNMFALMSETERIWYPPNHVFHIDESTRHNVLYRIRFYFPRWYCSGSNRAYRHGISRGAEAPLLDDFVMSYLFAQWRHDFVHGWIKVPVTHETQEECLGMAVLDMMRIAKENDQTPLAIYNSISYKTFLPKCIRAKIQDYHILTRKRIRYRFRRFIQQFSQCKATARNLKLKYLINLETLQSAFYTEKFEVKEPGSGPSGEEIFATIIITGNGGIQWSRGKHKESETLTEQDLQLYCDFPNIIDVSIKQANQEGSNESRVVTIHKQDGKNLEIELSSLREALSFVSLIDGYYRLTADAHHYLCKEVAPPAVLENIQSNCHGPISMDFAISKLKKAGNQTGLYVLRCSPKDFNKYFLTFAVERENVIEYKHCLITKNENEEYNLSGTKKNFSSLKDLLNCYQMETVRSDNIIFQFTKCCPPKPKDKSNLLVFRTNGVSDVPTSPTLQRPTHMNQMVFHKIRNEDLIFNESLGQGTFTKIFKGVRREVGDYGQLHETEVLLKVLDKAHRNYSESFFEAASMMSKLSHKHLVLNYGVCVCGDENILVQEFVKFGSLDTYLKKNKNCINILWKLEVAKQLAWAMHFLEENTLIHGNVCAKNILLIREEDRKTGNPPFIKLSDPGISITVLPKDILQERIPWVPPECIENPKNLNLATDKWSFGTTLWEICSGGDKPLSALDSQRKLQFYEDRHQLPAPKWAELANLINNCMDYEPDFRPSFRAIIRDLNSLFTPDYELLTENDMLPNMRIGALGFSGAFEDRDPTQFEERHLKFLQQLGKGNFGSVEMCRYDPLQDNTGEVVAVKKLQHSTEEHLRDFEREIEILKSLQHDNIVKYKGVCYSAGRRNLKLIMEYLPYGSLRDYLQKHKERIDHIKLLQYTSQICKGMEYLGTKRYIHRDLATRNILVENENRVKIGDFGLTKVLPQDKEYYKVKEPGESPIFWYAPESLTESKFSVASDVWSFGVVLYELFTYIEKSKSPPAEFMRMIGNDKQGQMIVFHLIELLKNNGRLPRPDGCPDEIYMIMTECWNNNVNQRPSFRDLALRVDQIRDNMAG

In general, IC50 refers to the midpoint of a concentration-inhibition curve. For the compound `CCOC(=O)c1cccc(Nc2nc(N)n(C(=O)c3c(F)cccc3F)n2)c1`, the IC50 in experiment [1] was > 10000 nM; in experiment [2] it was 1720 nM; in experiment [3], 990 nM; in experiment [4] it was > 10000 nM.
For the compound `Nc1nc(Nc2cccc(S(N)(=O)=O)c2)nn1C(=O)c1c(F)cccc1F`, the IC50 in experiment [1] was determined as 1250 nM; in experiment [2], 70 nM; in experiment [3], 19 nM; in experiment [4], 2500 nM.
With `Nc1nc(Nc2cccc(C(=O)O)c2)nn1C(=O)c1c(F)cccc1F`, the IC50 in experiment [1] was > 10000 nM; in experiment [2], 690 nM; in experiment [3] it was 610 nM; in experiment [4], > 10000 nM.
As to `COC(=O)c1ccc(Nc2nc(N)n(C(=O)c3c(F)cccc3F)n2)cc1`, the IC50 in experiment [1] was > 10000 nM; in experiment [2], 760 nM; in experiment [3] it was 500 nM; in experiment [4], > 10000 nM.
In the case of `Nc1nc(Nc2ccc(C(=O)O)cc2)nn1C(=O)c1c(F)cccc1F`, the IC50 in experiment [1] came out at 1470 nM; in experiment [2] it was 42 nM; in experiment [3] it was 45 nM; in experiment [4], 2110 nM.
Take `CCOC(=O)c1cccc(Nc2nc(N)nn2C(=O)c2c(F)cccc2F)c1`: the IC50 in experiment [2] is > 10000 nM.
Regarding `Nc1nc(Nc2ccccc2)nn1C(=O)c1c(F)cccc1F`, the IC50 in experiment [1] is 3250 nM; in experiment [2], 360 nM; in experiment [3], 230 nM; in experiment [4] it was ≥ 10000 nM.
On the same counts, the results for `CN(C)c1cccc(Nc2nc(N)n(C(=O)c3c(F)cccc3F)n2)c1` are 2000 nM, 70 nM, 39 nM and 5000 nM.
The like results for `CN(C)c1ccc(Nc2nc(N)n(C(=O)c3c(F)cccc3F)n2)cc1` were, in that order, 850 nM, 70 nM, 80 nM and 2500 nM.
Regarding `Nc1nc(Nc2cccnc2)nn1C(=O)c1c(F)cccc1F`, the IC50 in experiment [1] is 5000 nM; in experiment [2], 300 nM; in experiment [3] it was 160 nM; in experiment [4], > 10000 nM.
As for `CCOC(=O)c1cccc(Nc2nc(N)n(C(=O)c3ccccc3)n2)c1`, in experiment [2], the IC50 is > 10000 nM.
As for `CCOC(=O)c1cccc(Nc2nc(N)n(C(=O)c3ccccc3F)n2)c1`, the IC50 in experiment [1] was > 10000 nM; in experiment [2] it was 6040 nM; in experiment [3], ≥ 10000 nM; in experiment [4], > 10000 nM.
Consider `CCOC(=O)c1cccc(Nc2nc(N)n(C(=O)c3ccc(C(F)(F)F)cc3)n2)c1`, for which the IC50 in experiment [2] was > 10000 nM.
Consider `CCOC(=O)c1cccc(Nc2nc(N)n(C(=O)c3ccc(N(C)C)cc3)n2)c1`, for which, in experiment [2], the IC50 was > 10000 nM.
Same read-out and setting: the same measure for `CCOC(=O)c1cccc(Nc2nc(N)n(C(=O)c3ccco3)n2)c1`: > 10000 nM.
For the compound `CCOC(=O)c1cccc(Nc2nnc(N)[nH]2)c1`, the IC50 in experiment [2] was > 10000 nM.
